Test results: patent US20080248134A1, “Oral compositions, use and combinations of N-[2-(dimethylamino)ethyl]-2,6 dimethyl-1-oxo-1,2-dihydrobenzo[b]-1,6-naphthyridine-4-carboxamide and closely related analogues thereof” (Auckland Uniservices Limited, priority 2005, published 2008)

Experiments:
[1] = test system: HCT116 human colon carcinoma line, TP53 mutant; assay: In vitro cell survival, clonogenic assay; format: cell-based; conditions: p53 mutant HCT116, 6 hours exposure
Procedure: (§1) Two HCT116 human colon carcinoma lines, one with TP53 wild type status and one with TP53 mutant status, were exposed to the compound of Formula II for 6 hours. The cells were washed free of drug and surviving cells were measured by clonogenic assay. The concentration for maximal reduction of cell survival was 1% for p53 wild-type cells and 5% for p53 mutant cells. The cytotoxicity of the compound of the present invention was also tested in three Jurkat leukaemia lines, two of which, JLA and JLD, are resistant to topoisomerase inhibitors because of low cellular levels of topoisomerase II.

[2] = test system: HCT116 human colon carcinoma line, TP53 wild type; assay: In vitro cell survival, clonogenic assay; format: cell-based; conditions: p53 wild-type HCT116, 6 hours exposure
Procedure: as §1

[3] = test system: NZM4 melanoma line (mutant p53); assay: Induction of cell cycle arrest, flow cytometry; format: cell-based, human; conditions: NZM4, 0.3 μM for one hour, grown up to 9 days
Procedure: (§2) Flow cytometry was used to determine the magnitude and duration of cell cycle arrest induced by the compound of the present invention. Two human melanoma lines were used in a preliminary study, one having wild-type p53 status (NZM6) and one having mutant p53 status (NZM4). Cells were exposed to the compound of Formula II for one hour at a concentration of 0.3 μM, washed free of drug and grown for up to a further 9 days.

[4] = test system: NZM6 melanoma line (wild-type p53); assay: Induction of cell cycle arrest, flow cytometry; format: cell-based, human; conditions: NZM6, 0.3 μM for one hour, grown up to 9 days
Procedure: as §2

[5] = test system: p53, p21 and Fas in HCT116 (TP53 wild type); assay: Induction of the p53 pathway, western blotting; format: cell-based, human
Excerpt: The p53 protein is thought to play a major role in the induction of apoptosis in tumour cells (Levine A J. p53, the cellular gatekeeper for growth and division. Cell. 1997. 88(3):323-331). The p53 protein is a transcriptional activator, which acts in response to DNA damage and other stress pathways, and increases expression of proteins such as Fas and p21^WAF1. […] Products were detected by western blotting.

Lewis lung = assay: Murine Lewis lung tumour growth delay; format: in vivo; conditions: intraperitoneal dose of 8.9 mg/kg
Procedure: In addition, the compound of Formula II, by way of an intraperitoneal dose of 8.9 mg/kg, induced a growth delay of 8.5 days in a murine tumour (Lewis lung) that is also used extensively in drug development programmes.

H460 = assay: Human tumour xenograft; format: in vivo; set-up: key to Activity: Active: NCI Criterion for activity tumour volume T/C ≦ 40%; Inactive: NCI Criterion for activity tumour volume T/C ≦ 40%; conditions: H460, Lung
Procedure: (§3) The compound of Formula II was evaluated in a number of xenografts using cell lines derived from cervical, endometrial, lung and colon carcinomas, leukaemia and melanoma (Table 3). These studies indicate that the compound according to the present invention has significant activity in xenografts.

HCT116 = assay: Human tumour xenograft; format: in vivo; set-up: key to Activity: Active: NCI Criterion for activity tumour volume T/C ≦ 40%; Inactive: NCI Criterion for activity tumour volume T/C ≦ 40%; conditions: HCT116, Colon
Procedure: as §3

Jurkat LA = assay: Human tumour xenograft; format: in vivo; set-up: key to Activity: Active: NCI Criterion for activity tumour volume T/C ≦ 40%; Inactive: NCI Criterion for activity tumour volume T/C ≦ 40%; conditions: Leukaemia
Procedure: as §3

NZC1 = assay: Human tumour xenograft; format: in vivo; set-up: key to Activity: Active: NCI Criterion for activity tumour volume T/C ≦ 40%; Inactive: NCI Criterion for activity tumour volume T/C ≦ 40%; conditions: NZC1, Cervix
Procedure: as §3

NZEN1 = assay: Human tumour xenograft; format: in vivo; set-up: key to Activity: Active: NCI Criterion for activity tumour volume T/C ≦ 40%; Inactive: NCI Criterion for activity tumour volume T/C ≦ 40%; conditions: NZEN1, Endometrium
Procedure: as §3

NZM10 = assay: Human tumour xenograft; format: in vivo; set-up: key to Activity: Active: NCI Criterion for activity tumour volume T/C ≦ 40%; Inactive: NCI Criterion for activity tumour volume T/C ≦ 40%; conditions: NZM10, Melanoma
Procedure: as §3

NZM3 = assay: Human tumour xenograft; format: in vivo; set-up: key to Activity: Active: NCI Criterion for activity tumour volume T/C ≦ 40%; Inactive: NCI Criterion for activity tumour volume T/C ≦ 40%; conditions: NZM3, Melanoma
Procedure: as §3

NZM4 = assay: Human tumour xenograft; format: in vivo; set-up: key to Activity: Active: NCI Criterion for activity tumour volume T/C ≦ 40%; Inactive: NCI Criterion for activity tumour volume T/C ≦ 40%; conditions: NZM4, Melanoma
Procedure: as §3

NZMp1 = assay: Human tumour xenograft; format: in vivo; set-up: key to Activity: Active: NCI Criterion for activity tumour volume T/C ≦ 40%; Inactive: NCI Criterion for activity tumour volume T/C ≦ 40%; conditions: NZMp1, Melanoma
Procedure: as §3

NZMp2 = assay: Human tumour xenograft; format: in vivo; set-up: key to Activity: Active: NCI Criterion for activity tumour volume T/C ≦ 40%; Inactive: NCI Criterion for activity tumour volume T/C ≦ 40%; conditions: NZMp2, Melanoma
Procedure: as §3

colon 38 tumours = assay: Response of colon 38 tumours in immunocompetent and Rag1 immunodeficient mice; format: in vivo
Procedure: A single dose of 5.9 mg/kg of the compound of Formula II was administered intraperitoneally to immunocompetent mice in A, while a 5.9 mg/kg dose on days 0 and 7 was administered to Rag 1 immunodeficient mice (see FIG. 13). […] Initial tumour response (apoptosis induction) is similar in normal and immunosuppressed mice. The compound of Formula II appears to induce a change in tumour cells that activates a T-cell mediated response leading to tumour regression. This dependence on T-cells for response might explain why only moderate activity of the compound of Formula II is found in xenografts.

[6] = P53 not known, tumour volume T/C

For `Cc1cccc2cc3c(=O)n(C)cc(C(=O)NCCN(C)C)c3nc12` [Formula II, N-[2-(dimethylamino)ethyl]-2,6 dimethyl-1-oxo-1,2-dihydrobenzo[b]-1,6-naphthyridine-4-carboxamide], the “maximal reduction of cell survival” value [1] was 5%, the “maximal reduction of cell survival” value [2] was 1% and the cell cycle arrest [3] was “minimal effect in G1-phase but an extended effect in G2-phase”. For the same compound, the cell cycle arrest [4] was “extended arrest of NZM6 cells in both G1- and G2-phase”, the “induction of p53, p21 and Fas” value ([5]; 24 hours at higher cell density (approaching confluence)) was “induced these proteins” and the “induction of p53, p21 and Fas” value ([5]; 24 hours exposure) was “much greater response”. The “induction of p53, p21 and Fas” value ([5]; earlier times (4-10 hours)) was “induced these proteins”, the growth delay (Lewis lung) was 8.5 days and the Activity (H460) was “Active”. The “% control” value (H460; P53 W.T., tumour volume T/C) was 38%, the Activity (HCT116) was “Inactive” and the “% control” value (HCT116; P53 W.T., tumour volume T/C) was 70%. The Activity (Jurkat LA) was “Active”, the “% control” value (Jurkat LA; P53 Null, tumour volume T/C) was 28% and the Activity (NZC1) was “Active”. The “% control” value (NZC1; [6]) was 38%, the Activity (NZEN1) was “Inactive” and the “% control” value (NZEN1; [6]) was 50%. The Activity (NZM10) was “Active”, the “% control” value (NZM10; P53 W.T., tumour volume T/C) was 30% and the Activity (NZM3) was “Active”. For the same compound, the “% control” value (NZM3; P53 W.T., tumour volume T/C) was 38%, the Activity (NZM4) was “Inactive” and the “% control” value (NZM4; P53 Mutant, tumour volume T/C) was 90%. For the same compound, the Activity (NZMp1) was “Active”, the “% control” value (NZMp1; [6]) was <10% and the Activity (NZMp2) was “Active”. For the same compound, the “% control” value (NZMp2; tumour volume T/C) was 22%, the “activity against colon 38 tumours” value (colon 38 tumours; Rag1 immunodeficient mice, 5.9 mg/kg on days 0 and 7) was “attenuated” and the “activity against colon 38 tumours” value (colon 38 tumours; immunocompetent mice, single dose of 5.9 mg/kg intraperitoneally) was “active”.
